Assay in all cases: NCI anticancer screen, dose series, 48 h
The test system of test [1] is SK-MEL-2 melanoma.
The test system of test [2] is RXF 393 renal.
Test [3] relates to SNB-19 CNS.
Test [4] concerns SK-MEL-5 melanoma.
For test [5], the system named is CAKI-1 renal.
The test system of test [6] is SF-268 CNS.
In test [7] the test system is SN12C renal.
Test [8] concerns TK-10 renal.
Test [9] has as its system COLO 205 colon.
Test [10] relates to A498 renal.

The structures appear in SMILES notation.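 48-hour exposure; five concentrations; linearly interpolated endpoints. At the GI50, growth is halved. TGI: concentration producing complete growth inhibition.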

With `O=c1c2ccccc2c2nc3ccccc3nc2n1C1CCCCC1`, the TGI in test [1], in test [2], in [3], in [4], in test [5] and in [6] was greater than 100 µM each time. Further, the TGI in test [7], in [8] and in [9] was greater than 100 µM in each case.
With `O=C1C(=O)C(Br)(Br)C(Br)=C1Br`, the TGI in test [1] was 33.7 µM; in test [3], greater than 100 µM; in test [4], 29.4 µM; in test [5], 34.9 µM; in [7], 51.8 µM; in test [8], 39.9 µM. In [9], this compound gave a TGI of 32.9 µM.
`Nc1ccc(/C=N/Nc2ccnc3c(N)cccc23)c2cccnc12`: the GI50 in test [10] is 1.79 µM; in [1], 1.7 µM; in test [4], 1.78 µM; in [8], 1.96 µM; in [9], 1.78 µM. For the same compound, the TGI in test [10] was 3.3 µM; in test [1], 3.25 µM; in test [4], 3.19 µM; in test [8] it was 3.56 µM; in test [9] it was 3.46 µM.
In the case of `NC(=S)N/N=C1/C(=O)N(c2ccc(Cl)cc2Cl)C(=O)C(=O)C1c1nc2ccccc2s1` (configuration not stated), the TGI in test [1], in test [2], in test [3], in test [4], in test [5] and in [6] was greater than 100 µM in each case. The TGI in test [7], in [8] and in [9] was greater than 100 µM throughout.
Turning to `CC1=C(C(=O)Nc2ccc(Cl)c(Cl)c2)C(c2ccco2)C(C(=O)Nc2ccc(Cl)c(Cl)c2)=C(C)N1`, the TGI in test [10] turned out to be 26.6 µM; in [1], 26.3 µM; in [3] it was 25.8 µM; in test [4] it was 26.9 µM; in [5] it was 27.8 µM; in [6] it was 23.9 µM. For the same compound, the TGI came out at 23.9 µM in test [7], 18.9 µM in [8] and 25.7 µM in test [9].
In the case of `CC1C=CC(=O)C(n2cc(F)c(=O)[nH]c2=O)O1` (configuration not stated), the TGI was 37.8 µM in test [2]; 53.6 µM in [3]; 35.8 µM in test [4]; 24.2 µM in test [5]; 38.4 µM in test [7]; 34.4 µM in [8]. In addition, in test [9], the TGI stood at 35.9 µM.
As to `CC1OC(OCC2COC(O)(Oc3c(-c4ccc(O)c(O)c4)oc4cc(O)cc(O)c4c3=O)C(O)C2O)C(O)C(O)C1O` (configuration not stated), the TGI in test [10], in [2], in test [3], in test [4], in [5] and in test [6] was greater than 100 µM in each case. The TGI in test [7], in test [8] and in test [9] was greater than 100 µM throughout.
Turning to `O=[N+]([O-])c1nccn1COCCF`, the TGI in [1], in test [3], in [4], in [5], in test [6] and in [7] was greater than 100 µM each time. Further, the TGI in [8] and in test [9] was greater than 100 µM throughout.
Turning to `NCCC(O)(P(=O)(O)O)P(=O)(O)O`, the GI50 in test [10] was greater than 100 µM; in test [1], 4.43 µM; in [3] it was greater than 100 µM; in test [4], greater than 100 µM; in [6], greater than 100 µM; in test [7], greater than 100 µM. The GI50 in [8] and in [9] was greater than 100 µM each time. Moreover, the TGI in test [10] is greater than 100 µM; in test [1], 43.8 µM; in test [3], greater than 100 µM; in [4], greater than 100 µM; in [6], greater than 100 µM; in [7], greater than 100 µM. For the same compound, the TGI in test [8] and in test [9] was greater than 100 µM each time.
As to `COc1ccc(/C(C)=N/OC(=O)c2c(-c3ccccc3Cl)noc2C)cc1CN1CCOCC1`, the TGI in test [1] was 34.2 µM; in test [2] it was 77.8 µM; in test [3], 46.2 µM; in test [4], 31.8 µM; in [5], greater than 100 µM; in [6], greater than 100 µM. In addition, the TGI in [7] was 51.3 µM; in test [8], greater than 100 µM; in [9] it was 31.3 µM.
For `CCOC(=O)/C(=C/c1ccc(C#N)cc1)N(CC)CC`, the TGI in [10], in [1], in test [4], in test [5], in test [6] and in test [7] was greater than 100 µM each time. The TGI in [8] and in [9] was greater than 100 µM in each case.
Consider `O=c1cnn2c(n1)sc1ccc3ccccc3c12`, for which the TGI in test [1], in [2], in [3], in test [4], in [5] and in [6] was greater than 100 µM in each case. Moreover, the TGI in test [7], in test [8] and in test [9] was greater than 100 µM throughout.
Take `COC(=O)[C@]1(C)CCC[C@@]2(C)C1CCC1=CC3(C(C)C)CCC12OO3` (some centres not stated): the TGI in [10], in test [1], in test [3], in test [4], in test [5] and in test [6] was greater than 100 µM each time. Also, the TGI in test [7], in test [8] and in test [9] was greater than 100 µM in each case.
Consider `Cc1ccc(C)c(-c2csc(Nc3ccc(C)c(C)c3)n2)c1`, for which the GI50 in [1] was greater than 100 µM; in test [2], 24.2 µM; in test [3], 77 µM; in [4], greater than 100 µM; in test [5] it was greater than 100 µM; in [6] it was 29.8 µM. In addition, the GI50 in test [7], in test [8] and in test [9] was greater than 100 µM in each case. For the same compound, the TGI in test [1], in test [2], in [3], in [4], in test [5] and in test [6] was greater than 100 µM throughout. The TGI in [7], in test [8] and in test [9] was greater than 100 µM in each case.

(Values after PubChem BioAssay (NCI).)
